In patent US12157741B2, “Macrocyclic inhibitors of DYRK1A” (DANA-FARBER CANCER INSTITUTE, INC., priority 2018, dated 2024):
Like-named read-outs stand apart in the source and are kept apart here.

Key:
Assay type in all cases: binding
various enzymes [1] = target: various enzymes (Homo sapiens, UniProt O75914); settings: compound 1 uM
Protocol: (§1) Ambit profiling was conducted in accordance with the manufacturer's instructions.

various enzymes [2] = target: various enzymes (Homo sapiens, UniProt Q8N5S9); settings: compound 1 uM
Protocol: as §1

various enzymes [3] = target: T1, various enzymes (Homo sapiens, UniProt Q96L34); settings: compound 1 uM
T1 sequence (Q96L34 1-752): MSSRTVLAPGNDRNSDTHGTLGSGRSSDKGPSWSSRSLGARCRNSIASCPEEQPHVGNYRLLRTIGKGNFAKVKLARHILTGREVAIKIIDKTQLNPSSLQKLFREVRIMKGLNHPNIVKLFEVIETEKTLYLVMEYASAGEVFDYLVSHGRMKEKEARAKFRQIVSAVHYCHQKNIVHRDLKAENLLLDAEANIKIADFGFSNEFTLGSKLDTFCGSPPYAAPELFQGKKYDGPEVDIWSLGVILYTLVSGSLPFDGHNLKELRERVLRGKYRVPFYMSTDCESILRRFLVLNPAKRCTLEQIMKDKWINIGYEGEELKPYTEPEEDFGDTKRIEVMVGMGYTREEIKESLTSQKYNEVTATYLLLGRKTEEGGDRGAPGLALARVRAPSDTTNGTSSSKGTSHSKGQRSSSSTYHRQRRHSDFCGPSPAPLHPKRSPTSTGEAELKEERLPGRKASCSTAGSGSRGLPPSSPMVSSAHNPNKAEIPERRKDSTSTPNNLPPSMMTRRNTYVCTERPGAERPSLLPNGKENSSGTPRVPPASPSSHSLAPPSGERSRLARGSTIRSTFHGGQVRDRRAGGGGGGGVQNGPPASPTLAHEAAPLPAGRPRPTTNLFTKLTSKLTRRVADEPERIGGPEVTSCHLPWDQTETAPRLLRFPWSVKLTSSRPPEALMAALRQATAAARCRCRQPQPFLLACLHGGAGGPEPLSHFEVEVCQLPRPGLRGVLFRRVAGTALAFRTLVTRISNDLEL
Protocol: as §1

various enzymes [4] = target: various enzymes (Homo sapiens, UniProt P36507); settings: compound 1 uM
Chain of various enzymes (Homo sapiens, UniProt P36507) (P36507 whole entry): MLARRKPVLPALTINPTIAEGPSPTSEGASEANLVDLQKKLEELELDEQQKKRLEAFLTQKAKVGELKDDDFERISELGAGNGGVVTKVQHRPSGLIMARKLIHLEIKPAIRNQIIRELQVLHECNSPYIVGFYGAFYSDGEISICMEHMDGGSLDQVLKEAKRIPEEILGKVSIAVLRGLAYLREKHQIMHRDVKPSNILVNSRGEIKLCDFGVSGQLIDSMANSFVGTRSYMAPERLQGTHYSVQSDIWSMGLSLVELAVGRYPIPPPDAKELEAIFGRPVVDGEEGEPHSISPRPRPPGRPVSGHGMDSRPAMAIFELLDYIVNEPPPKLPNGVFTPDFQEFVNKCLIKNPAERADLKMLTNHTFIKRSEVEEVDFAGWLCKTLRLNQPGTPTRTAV
Protocol: as §1

various enzymes [5] = target: various enzymes (Homo sapiens, UniProt P37023); settings: compound 1 uM
Protocol: as §1

various enzymes [6] = target: various enzymes (Homo sapiens, UniProt Q8NEB9); settings: compound 1 uM
Protocol: as §1

various enzymes [7] = target: various enzymes (Homo sapiens, UniProt P29322); settings: compound 1 uM
Chain of various enzymes (Homo sapiens, UniProt P29322) (P29322 28-1005): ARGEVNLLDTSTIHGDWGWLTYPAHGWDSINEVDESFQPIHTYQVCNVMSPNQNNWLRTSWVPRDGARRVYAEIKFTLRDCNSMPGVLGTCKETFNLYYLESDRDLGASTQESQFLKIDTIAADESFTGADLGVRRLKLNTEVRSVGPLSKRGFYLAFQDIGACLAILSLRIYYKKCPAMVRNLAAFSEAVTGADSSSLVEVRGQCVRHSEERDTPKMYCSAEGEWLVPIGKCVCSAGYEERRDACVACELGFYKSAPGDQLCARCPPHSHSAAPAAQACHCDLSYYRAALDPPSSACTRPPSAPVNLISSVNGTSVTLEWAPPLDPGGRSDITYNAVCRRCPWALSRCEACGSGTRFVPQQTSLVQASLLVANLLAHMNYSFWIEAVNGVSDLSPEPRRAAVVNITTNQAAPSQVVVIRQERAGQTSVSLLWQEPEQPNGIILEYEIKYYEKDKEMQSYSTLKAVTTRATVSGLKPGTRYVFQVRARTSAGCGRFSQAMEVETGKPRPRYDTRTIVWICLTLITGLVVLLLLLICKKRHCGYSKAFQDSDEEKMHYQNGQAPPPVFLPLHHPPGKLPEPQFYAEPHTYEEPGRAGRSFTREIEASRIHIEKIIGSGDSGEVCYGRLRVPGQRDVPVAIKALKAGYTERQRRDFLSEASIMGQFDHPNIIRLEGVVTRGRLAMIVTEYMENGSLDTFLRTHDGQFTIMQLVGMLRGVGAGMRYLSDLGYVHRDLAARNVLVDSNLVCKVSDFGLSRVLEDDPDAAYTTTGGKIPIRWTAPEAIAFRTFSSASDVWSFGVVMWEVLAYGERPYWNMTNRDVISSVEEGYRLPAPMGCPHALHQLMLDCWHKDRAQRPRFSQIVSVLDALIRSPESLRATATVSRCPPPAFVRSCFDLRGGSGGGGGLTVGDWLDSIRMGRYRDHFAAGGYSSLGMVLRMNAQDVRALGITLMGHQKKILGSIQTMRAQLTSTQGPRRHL
Protocol: as §1

various enzymes [8] = target: various enzymes (Homo sapiens, UniProt P00533, L861Q)
Protocol: as §1

various enzymes [9] = target: various enzymes (Homo sapiens, UniProt P00533, G719S)
Protocol: as §1

various enzymes [10] = target: various enzymes (Homo sapiens, UniProt P27037); settings: compound 1 uM
Protocol: as §1

various enzymes [11] = target: various enzymes (Homo sapiens, UniProt O95835); settings: compound 1 uM
Protocol: as §1

various enzymes [12] = target: various enzymes (Homo sapiens, UniProt Q16584); settings: compound 1 uM
Protocol: as §1

various enzymes [13] = target: T2, various enzymes (Homo sapiens, UniProt P36888, D835V, form not given)
T2 construct: other: FLT3(ITD, D835V); 1 uM; other: compound 1 uM
Protocol: as §1

various enzymes [14] = target: various enzymes (Homo sapiens, UniProt Q07912); settings: compound 1 uM
Protocol: as §1

various enzymes [15] = target: various enzymes (Homo sapiens, UniProt Q56UN5); settings: compound 1 uM
Chain of various enzymes (Homo sapiens, UniProt Q56UN5) (Q56UN5 whole entry): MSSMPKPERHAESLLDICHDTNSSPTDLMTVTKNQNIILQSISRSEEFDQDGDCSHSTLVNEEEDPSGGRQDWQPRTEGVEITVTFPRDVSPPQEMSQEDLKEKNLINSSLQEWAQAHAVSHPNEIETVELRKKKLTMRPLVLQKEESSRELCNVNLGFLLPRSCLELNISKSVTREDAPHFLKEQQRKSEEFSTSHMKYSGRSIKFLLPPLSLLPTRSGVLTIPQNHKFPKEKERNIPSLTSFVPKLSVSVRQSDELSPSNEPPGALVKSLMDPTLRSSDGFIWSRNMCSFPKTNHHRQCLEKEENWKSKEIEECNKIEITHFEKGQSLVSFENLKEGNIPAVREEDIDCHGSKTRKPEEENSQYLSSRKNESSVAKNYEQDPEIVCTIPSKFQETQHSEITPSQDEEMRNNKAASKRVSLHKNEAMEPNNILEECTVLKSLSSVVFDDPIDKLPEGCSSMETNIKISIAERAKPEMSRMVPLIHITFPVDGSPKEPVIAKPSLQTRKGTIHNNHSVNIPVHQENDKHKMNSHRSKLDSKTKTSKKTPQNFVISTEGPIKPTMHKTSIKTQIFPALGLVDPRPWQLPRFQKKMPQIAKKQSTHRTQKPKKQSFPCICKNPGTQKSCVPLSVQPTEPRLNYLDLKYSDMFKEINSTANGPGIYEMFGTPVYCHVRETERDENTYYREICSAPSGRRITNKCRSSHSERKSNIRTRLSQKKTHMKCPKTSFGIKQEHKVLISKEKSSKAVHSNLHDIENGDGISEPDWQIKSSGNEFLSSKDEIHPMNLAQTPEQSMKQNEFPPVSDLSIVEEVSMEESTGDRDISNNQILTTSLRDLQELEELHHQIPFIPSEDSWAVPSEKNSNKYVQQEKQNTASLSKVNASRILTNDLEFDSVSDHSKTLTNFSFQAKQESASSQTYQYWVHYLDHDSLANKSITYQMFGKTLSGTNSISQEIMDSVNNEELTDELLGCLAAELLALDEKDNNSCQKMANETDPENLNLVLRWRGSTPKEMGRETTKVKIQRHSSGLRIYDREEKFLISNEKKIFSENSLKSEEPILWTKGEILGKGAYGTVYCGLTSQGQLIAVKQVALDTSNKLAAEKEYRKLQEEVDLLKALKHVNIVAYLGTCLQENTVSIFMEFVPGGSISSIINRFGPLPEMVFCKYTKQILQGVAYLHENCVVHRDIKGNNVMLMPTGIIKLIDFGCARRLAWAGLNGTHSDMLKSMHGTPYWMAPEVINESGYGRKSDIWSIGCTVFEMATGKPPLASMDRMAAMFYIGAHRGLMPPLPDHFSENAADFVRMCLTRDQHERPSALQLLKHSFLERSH
Protocol: as §1

various enzymes [16] = target: various enzymes (Homo sapiens, UniProt Q13523); settings: compound 1 uM
Protocol: as §1

various enzymes [17] = target: T3, various enzymes (Homo sapiens, UniProt Q9H093); settings: compound 1 uM
T3 sequence (Q9H093 1-628): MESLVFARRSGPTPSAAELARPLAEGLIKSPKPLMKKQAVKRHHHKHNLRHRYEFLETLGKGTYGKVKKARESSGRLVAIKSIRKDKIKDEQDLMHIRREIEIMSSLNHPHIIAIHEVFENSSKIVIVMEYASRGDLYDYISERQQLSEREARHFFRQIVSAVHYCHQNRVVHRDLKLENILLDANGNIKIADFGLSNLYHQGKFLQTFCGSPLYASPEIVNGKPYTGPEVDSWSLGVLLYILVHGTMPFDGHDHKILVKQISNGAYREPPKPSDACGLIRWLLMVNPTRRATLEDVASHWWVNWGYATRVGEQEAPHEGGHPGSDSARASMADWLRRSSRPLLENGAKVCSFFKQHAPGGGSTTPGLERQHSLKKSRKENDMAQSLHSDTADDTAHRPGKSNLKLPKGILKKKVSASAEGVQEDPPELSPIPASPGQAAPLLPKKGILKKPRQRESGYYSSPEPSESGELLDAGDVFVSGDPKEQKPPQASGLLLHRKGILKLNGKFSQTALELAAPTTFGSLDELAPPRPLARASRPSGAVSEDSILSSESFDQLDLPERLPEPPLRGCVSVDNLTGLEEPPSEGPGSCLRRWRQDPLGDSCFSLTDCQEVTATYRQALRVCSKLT
Protocol: as §1

various enzymes [18] = target: various enzymes (Homo sapiens, UniProt Q05655); settings: compound 1 uM
Protocol: as §1

various enzymes [19] = target: various enzymes (Homo sapiens, UniProt P20794); settings: compound 1 uM
Protocol: as §1

various enzymes [20] = target: various enzymes (Homo sapiens, UniProt Q9BYT3); settings: compound 1 uM
Protocol: as §1

various enzymes [21] = target: various enzymes (Homo sapiens, UniProt P10721, V559D)
Chain of various enzymes (Homo sapiens, UniProt P10721, V559D) (P10721 26-976 V559D): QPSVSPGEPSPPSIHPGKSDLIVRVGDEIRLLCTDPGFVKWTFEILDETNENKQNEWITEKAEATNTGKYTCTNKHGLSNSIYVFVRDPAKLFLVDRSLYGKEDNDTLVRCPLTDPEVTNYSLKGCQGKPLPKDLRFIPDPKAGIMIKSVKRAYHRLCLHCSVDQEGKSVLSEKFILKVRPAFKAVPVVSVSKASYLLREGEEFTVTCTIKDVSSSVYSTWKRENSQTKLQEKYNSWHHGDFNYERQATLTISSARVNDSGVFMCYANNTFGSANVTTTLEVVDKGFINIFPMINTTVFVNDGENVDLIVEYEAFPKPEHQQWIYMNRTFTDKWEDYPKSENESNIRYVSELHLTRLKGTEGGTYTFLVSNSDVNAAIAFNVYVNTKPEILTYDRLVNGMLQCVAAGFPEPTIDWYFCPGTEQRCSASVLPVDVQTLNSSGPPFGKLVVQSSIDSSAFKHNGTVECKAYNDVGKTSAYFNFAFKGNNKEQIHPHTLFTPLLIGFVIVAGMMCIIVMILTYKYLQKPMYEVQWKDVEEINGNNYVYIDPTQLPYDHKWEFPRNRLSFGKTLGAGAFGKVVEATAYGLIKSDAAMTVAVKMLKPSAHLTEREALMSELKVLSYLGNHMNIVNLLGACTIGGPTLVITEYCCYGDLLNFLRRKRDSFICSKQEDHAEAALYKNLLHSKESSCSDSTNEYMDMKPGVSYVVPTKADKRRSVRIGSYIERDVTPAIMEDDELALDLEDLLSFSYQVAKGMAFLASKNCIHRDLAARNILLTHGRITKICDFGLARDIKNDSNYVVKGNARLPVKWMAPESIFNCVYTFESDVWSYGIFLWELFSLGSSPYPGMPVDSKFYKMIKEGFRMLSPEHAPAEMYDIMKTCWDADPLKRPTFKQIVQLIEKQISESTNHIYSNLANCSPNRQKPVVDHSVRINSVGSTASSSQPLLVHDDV
Protocol: as §1

various enzymes [22] = target: various enzymes (Homo sapiens, UniProt Q13177); settings: compound 1 uM
Protocol: as §1

various enzymes [23] = target: various enzymes (Homo sapiens, UniProt O15075); settings: compound 1 uM
Chain of various enzymes (Homo sapiens, UniProt O15075) (O15075 whole entry): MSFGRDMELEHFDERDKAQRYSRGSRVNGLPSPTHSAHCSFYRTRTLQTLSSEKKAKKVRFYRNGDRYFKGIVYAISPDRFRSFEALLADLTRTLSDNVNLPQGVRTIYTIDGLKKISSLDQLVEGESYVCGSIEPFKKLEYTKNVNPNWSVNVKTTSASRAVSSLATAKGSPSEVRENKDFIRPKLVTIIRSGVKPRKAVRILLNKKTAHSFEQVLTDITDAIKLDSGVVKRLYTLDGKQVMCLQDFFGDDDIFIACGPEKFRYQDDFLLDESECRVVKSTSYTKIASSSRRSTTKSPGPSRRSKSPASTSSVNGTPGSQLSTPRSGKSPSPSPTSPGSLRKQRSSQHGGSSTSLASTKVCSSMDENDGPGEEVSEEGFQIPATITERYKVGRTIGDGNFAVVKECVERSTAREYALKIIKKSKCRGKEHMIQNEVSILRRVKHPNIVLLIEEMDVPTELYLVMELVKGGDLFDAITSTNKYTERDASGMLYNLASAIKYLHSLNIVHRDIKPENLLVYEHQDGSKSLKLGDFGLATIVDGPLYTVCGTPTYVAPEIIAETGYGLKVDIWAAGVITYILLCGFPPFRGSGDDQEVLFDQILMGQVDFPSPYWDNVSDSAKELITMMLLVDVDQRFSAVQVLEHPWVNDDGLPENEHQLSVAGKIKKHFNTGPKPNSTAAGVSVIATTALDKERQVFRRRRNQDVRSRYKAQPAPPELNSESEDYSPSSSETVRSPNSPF
Protocol: as §1

various enzymes [24] = target: various enzymes (Homo sapiens, UniProt Q8N752); settings: compound 1 uM
Chain of various enzymes (Homo sapiens, UniProt Q8N752) (Q8N752 whole entry): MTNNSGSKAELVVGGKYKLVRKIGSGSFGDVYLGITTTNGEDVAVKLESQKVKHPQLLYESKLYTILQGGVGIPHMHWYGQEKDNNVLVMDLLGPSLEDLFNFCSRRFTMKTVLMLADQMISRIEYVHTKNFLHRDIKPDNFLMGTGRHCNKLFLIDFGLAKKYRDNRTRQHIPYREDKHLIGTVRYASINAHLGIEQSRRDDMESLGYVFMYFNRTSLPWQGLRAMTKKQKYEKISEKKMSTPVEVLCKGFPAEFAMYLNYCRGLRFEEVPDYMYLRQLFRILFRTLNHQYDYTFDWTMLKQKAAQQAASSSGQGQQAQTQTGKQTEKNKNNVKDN
Protocol: as §1

various enzymes [25] = target: various enzymes (Homo sapiens, UniProt Q99759); settings: compound 1 uM
Protocol: as §1

SMILES | Ambit profiling: PAK3 (various enzymes [1]) | Ambit profiling: CAMKK1 (various enzymes [2]) | Ambit profiling: MARK4 (various enzymes [3]) | Ambit profiling: MEK2 (various enzymes [4]) | Ambit profiling: ACVRL1 (various enzymes [5]) | Ambit profiling: VPS34 (various enzymes [6]) | Ambit profiling: EPHA8 (various enzymes [7]) | Ambit profiling: ACVR2A (various enzymes [10]) | Ambit profiling: LATS1 (various enzymes [11]) | Ambit profiling: MLK3 (various enzymes [12]) | Ambit profiling: TNK2 (various enzymes [14]) | Ambit profiling: YSK4 (various enzymes [15]) | Ambit profiling: PRP4 (various enzymes [16]) | Ambit profiling: SNARK (various enzymes [17]) | Ambit profiling: PRKCD (various enzymes [18]) | Ambit profiling: MAK (various enzymes [19]) | Ambit profiling: STK33 (various enzymes [20]) | Ambit profiling: PAK2 (various enzymes [22]) | Ambit profiling: DCAMKL1 (various enzymes [23]) | Ambit profiling: CSNK1A1L (various enzymes [24]) | further results
CC(C)N1Cc2nn(C)cc2-c2cnc3[nH]cc(c3c2)-c2cn(nc2C(F)(F)F)CCCC1=O [Compound 45, (Z)-5-isopropyl-31-methyl-13-(trifluoromethyl)-11H,21H,31H-5-aza-2(3,5)-pyrrolo[2,3-b]pyridina-1(4,1),3(4,3)-dipyrazolacyclononaphan-6-one] | 12 | 3.6 | 28 | 12 | 36 | 100 | 8.7 | 100 | 100 | 28 | 11 | 17 | 36 | 14 | 71 | 34 | 71 | 74 | 80 | 100 | Ambit profiling: EGFR(L861Q) (various enzymes [8]; compound 1 uM): 28; Ambit profiling: EGFR(G719S) (various enzymes [9]; compound 1 uM): 41; Ambit profiling: FLT3(ITD, D835V) (various enzymes [13]; compound 1 uM): 0; Ambit profiling: KIT(V559D) (various enzymes [21]; compound 1 uM): 3.2; Ambit profiling: MAP3K3 (various enzymes [25]): 0.35
COc1c2c(nn1C)CN(C(C)C)C(=O)CCCn1cc(c(C(F)(F)F)n1)-c1c[nH]c3ncc-2cc13 [Compound 50, (Z)-5-isopropyl-35-methoxy-31-methyl-13-(trifluoromethyl)-11H,21H,31H-5-aza-2(3,5)-pyrrolo[2,3-b]pyridina-1(4,1),3(4,3)-dipyrazolacyclononaphan-6-one] | 24 | 8 | 55 | 11 | 67 | 83 | 26 | 96 | 72 | 11 | 1.9 | 0.1 | 87 | 47 | 43 | 77 | 23 | 100 | 54 | 67 | Ambit profiling: EGFR(L861Q) (various enzymes [8]): 17; Ambit profiling: EGFR(G719S) (various enzymes [9]): 41; Ambit profiling: FLT3(ITD, D835V) (various enzymes [13]): 0.55; Ambit profiling: KIT(V559D) (various enzymes [21]): 0.95; Ambit profiling: MAP3K3 (various enzymes [25]): 0.3
